The source of these data is publication PMC8911181, “A Novel CDK4/6 and PARP Dual Inhibitor ZC-22 Effectively Suppresses Tumor Growth and Improves the Response to Cisplatin Treatment in Breast and Ovarian Cancer” (International Journal of Molecular Sciences, 2022).

This assay has as its system CDK4/6-mediated phosphorylation of Rb. Put plainly: Western blot of p-Rb/Rb. The format is cell-based, human. As to conditions: MDA-MB-231 (2 μM) and OVCAR5 (0.5 μM) cells, 24 h. As for the experimental part:
Cells were washed with PBS, collected with scraper, and then lysed in RIPA buffer containing 1× protease and phosphatase inhibitors for 30 min on ice. The supernatants were collected by centrifugation at full speed for 10 min at 4 °C and subjected to SDS-PAGE followed by immunoblotting as described before. Signals were detected using enhanced chemiluminescence (Millipore, Burlington, MA, USA) and captured by the G: BOX Chemi XRQ gel doc System (Syngene, Cambridge, UK).
Figure 3 ZC-22 inhibits CDK4/6 and PARP to induce cell-cycle arrest, DNA damage, and apoptosis in breast and ovarian cancer cells. (A,B) MDA-MB-231 cells were treated with 2 μM LY2835219 (LY-2) or ZC-22. […] The levels of CDK4/6 and p-Rb/Rb were determined by Western blot (A). Cell-cycle distribution was analyzed by flow cytometry (B). […] (D,E) Representative pictures (left) and quantification of percentage (right) of γH2A.X-positive cells in MDA-MB-231 cells treated with 2 μM OLA or ZC-22 for 24 h (D), or OVCAR5 cells treated with 0.5 μM OLA or ZC-22 for 24 h (E). Values are means ± SD, n = 3. * p < 0.05, ** p < 0.01, and *** p < 0.001 for comparisons with the DMSO-treated group. p value was calculated using an unpaired t-test. […] Values are means ± SD, n = 3. * p < 0.05, ** p < 0.01, and *** p < 0.001 vs. the DMSO-treated group. p value was calculated using an unpaired t-test. […]

With `CCN1CCN(Cc2ccc(Nc3ncc(F)c(-c4cc(F)c5nc(C)n(C(C)C)c5c4)n3)nc2)CC1` [LY2835219, Abemaciclib, reference compound], the “inhibitory activity on CDK4/6-mediated phosphorylation of Rb” value is recorded as “equal inhibitory activity”.

As to `Cc1nc2c(F)cc(-c3nc(Nc4ccc(N5CCN(C(=O)c6cc(Cc7n[nH]c(=O)c8ccccc78)ccc6F)CC5)cn4)ncc3F)cc2n1C(C)C` [ZC-22, 4-(4-fluoro-3-(4-(6-((5-fluoro-4-(4-fluoro-1-isopropyl-2-methyl-1H-benzo[d]imidazole-6-yl)pyrimidin-2-yl)amino)pyridin-3-yl)piperazine-1-carbonyl)benzyl)phthalazin-1(2H)-one], the “inhibitory activity on CDK4/6-mediated phosphorylation of Rb” value is reported as “equal inhibitory activity”.
